Experimental data from patent publication US12564638B2 (SHANGHAITECH UNIVERSITY, priority 2019, dated 2026).
Read-outs that look alike come from different tables or passages of the source.

System: HCC827 cells (EGFR Exon19 del, non-small cell lung cancer cells)
Assay: Cell viability assay (WST/CCK8), HCC827 cells
Assay type: cell-based
Conditions: Homo sapiens, HCC827, 72 h, HCC827 (Exon19 Del), 72 hours, read-out: IC50 (half inhibitory concentration)
Method in brief: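 Cells seeded at 3 000/well in RPMI1640 complete medium, dosed next day with compounds (top 10 μM, 3-fold, 10 points) for 72 h. Viability read with WST (CCK8) reagent; DMSO as negative control, EGFR TKIs as positive controls; IC50 determined.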

[1] = Table 3, poziotinib-based compounds, WST (CCK8)
[2] = Table 4, gefitinib and sapitinib-based compounds, WST

| SMILES | IC50 [1] | IC50 [2] | other results |
| --- | --- | --- | --- |
| COc1cc2ncnc(Nc3ccc(Cl)c(Cl)c3F)c2cc1OC1CCN(C(=O)CCCCC(=O)N[C@H](C(=O)N2C[C@H](O)C[C@H]2C(=O)NCc2ccc(-c3scnc3C)cc2)C(C)(C)C)CC1 [SIAIS249021, (2S,4R)-1-((S)-2-(6-(4-((4-((3,4-dichloro-2-fluorophenyl)amino)-7-methoxyquinazolin-6-yl)oxy)piperidin-1-yl)-6-oxohexanamido)-3,3-dimethylbutanoyl)-4-hydroxy-N-(4-(4-methylthiazol-5-yl)benzyl)pyrrolidine-2-carboxamide] | 75.4 nM |  |  |
| COc1cc2ncnc(Nc3ccc(Cl)c(Cl)c3F)c2cc1OC1CCN(C(=O)CCCCCCC(=O)N[C@H](C(=O)N2C[C@H](O)C[C@H]2C(=O)NCc2ccc(-c3scnc3C)cc2)C(C)(C)C)CC1 [SIAIS249022, (2S,4R)-1-((S)-2-(8-(4-((4-((3,4-dichloro-2-fluorophenyl)amino)-7-methoxyquinazolin-6-yl)oxy)piperidin-1-yl)-8-oxooctanamido)-3,3-dimethylbutanoyl)-4-hydroxy-N-(4-(4-methylthiazol-5-yl)benzyl)pyrrolidine-2-carboxamide] | 40 nM |  |  |
| COc1cc2ncnc(Nc3ccc(Cl)c(Cl)c3F)c2cc1OC1CCN(C(=O)CCCCCCCCC(=O)N[C@H](C(=O)N2C[C@H](O)C[C@H]2C(=O)NCc2ccc(-c3scnc3C)cc2)C(C)(C)C)CC1 [SIAIS249023, (2S,4R)-1-((S)-2-(10-(4-((4-((3,4-dichloro-2-fluorophenyl)amino)-7-methoxyquinazolin-6-yl)oxy)piperidin-1-yl)-10-oxodecanamido)-3,3-dimethylbutanoyl)-4-hydroxy-N-(4-(4-methylthiazol-5-yl)benzyl)pyrrolidine-2-carboxamide] | 49 nM |  |  |
| COc1cc2ncnc(Nc3ccc(F)c(Cl)c3)c2cc1OCCCN1CCN(C(=O)CCCCCSc2cccc3c2CN(C2CCC(=O)NC2=O)C3=O)CC1 (centres unmarked) [SIAIS184186, 3-(4-((6-(4-(3-((4-((3-chloro-4-fluorophenyl)amino)-7-methoxyquinazolin-6-yl)oxy)propyl)piperazin-1-yl)-6-oxohexyl)thio)-1-oxoisoindolin-2-yl)piperidine-2,6-dione] |  | 124 nM |  |
| O=C1CCC(N2C(=O)c3cccc(SCCOCCOCCOCCOCC(=O)Nc4cc5c(Nc6ccc(F)c(Cl)c6)ncnc5cc4O[C@H]4CCOC4)c3C2=O)C(=O)N1 (stereo partly drawn) [SIAIS184155, N-(4-((3-chloro-4-fluorophenyl)amino)-7-(((S)-tetrahydrofuran-3-yl)oxy)quinazolin-6-yl)-14-((2-(2,6-dioxopiperidin-3-yl)-1,3-dioxoisoindolin-4-yl)thio)-3,6,9,12-tetraoxatetradecan-1-amide] |  |  | IC50 (Table 5, afatinib-based compounds, WST): 79 nM |
| COc1cc2ncnc(Nc3ccc(F)c(Cl)c3)c2cc1OCCCN1CCN(C(=O)COCCOCCOCCOCCOCCSc2cccc3c2C(=O)N(C2CCC(=O)NC2=O)C3=O)CC1 (centres unmarked) [SIAIS184170, 4-((17-(4-(3-((4-((3-chloro-4-fluorophenyl)amino)-7-methoxyquinazolin-6-yl)oxy)propyl)piperazin-1-yl)-17-oxo-3,6,9,12,15-pentaoxaheptadecyl)thio)-2-(2,6-dioxopiperidin-3-yl)isoindoline-1,3-dione] |  | 186 nM |  |
| COc1cc2ncnc(Nc3ccc(F)c(Cl)c3)c2cc1NC(=O)/C=C/CN1CCC(N2CCN(CCCCCNc3cccc4c3C(=O)N(C3CCC(=O)NC3=O)C4=O)CC2)CC1 (centres unmarked) [SIAIS262071, (E)-N-(4-((3-chloro-4-fluorophenyl)amino)-7-methoxyquinazolin-6-yl)-4-(4-(4-(5-((2-(2,6-dioxopiperidin-3-yl)-1,3-dioxoisoindolin-4-yl)amino)pentyl)piperazin-1-yl)piperidin-1-yl)but-2-enamide] |  |  | IC50 (WST (CCK8)): 5.9 nM |
| COc1cc2ncnc(Nc3ccc(F)c(Cl)c3)c2cc1OCCCN1CCN(C(=O)CSc2cccc3c2CN(C2CCC(=O)NC2=O)C3=O)CC1 (centres unmarked) [SIAIS184184, 3-(4-((2-(4-(3-((4-((3-chloro-4-fluorophenyl)amino)-7-methoxyquinazolin-6-yl)oxy)propyl)piperazin-1-yl)-2-oxoethyl)thio)-1-oxoisoindolin-2-yl)piperidine-2,6-dione] |  | 100 nM |  |
